# In US10434090B2, “Pharmaceutical composition containing a hypomethylating agent and a histone deacetylase inhibitor” (NIMBLE EPITECH, LLC, priority 2009, dated 2019):
# Settings: reservoir patch, drug at saturation, cladribine in ethanol/DMSO (50/50), entinostat in ethanol/water (2/1), human cadaver epidermis
# Description: A feasibility study of transdermal delivery of cladribine and HDAC inhibitors was conducted using the Franz Cell Method. The scope of the ongoing study is to determine the passive transdermal diffusion rate (passive perfusion) of cladribine and multiple HDAC inhibitors for creation of continuous transdermal delivery for induction therapy.
# Cladribine was mixed with about 2 percent of a concentration of a thickener comprising a cellulose component to thicken the cladribine composition.
# All testing was performed in an incubator at 32 degrees Celsius.
# Round pieces of human cadaveric skin were cut out. The patches were placed on top of the skin and mounted in the Franz Cells between the donor compartment and the receiver compartments of the cell. The two compartments were tightened together with a screw-on pinch clamp.
# The results of transdermal flux were graphed as a function of time.
structure (smiles),measurement,setting,value
Nc1nc(Cl)nc2c1ncn2[C@H]1C[C@H](O)[C@@H](CO)O1 [Cladribine],lag time before sustained transdermal delivery,,10 h
same,optimum transdermal flux,"32 degrees Celsius, 24 hour",170 μg/cm^2/day
